Laboratory results reported in patent publication US20100331305A1, “OXO-HETEROCYCLE FUSED PYRIMIDINE COMPOUNDS, COMPOSITIONS AND METHODS OF USE” (Genentech, Inc., priority 2009, published 2010).
Values joined by “and” are separate entries in the source; they are usually repeats but may differ in a detail not shown here. Equal entries are not always repeated.

Experiments:
[1] = target: mTOR enzyme (mTOR(1360-2549)+GBL) (Homo sapiens, UniProt P42345); assay: In vitro mTOR kinase assay (TR-FRET); assay type: biochemical; conditions: 0.25 nM mTOR+GBL, 8 uM ATP; values tied to compounds by order of Table 1; 'x or y' = two alternative values for separated diastereomers of unassigned stereochemistry; read-out: activity level (Ki) in the mTOR kinase assay
Summary of the method: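 Compounds were tested in 10-point dose curves from 10 uM top final concentration. The reaction was stopped with 2 nM Tb-anti-p4E-BP1 (T37/T46) antibody plus 10 mM EDTA for 30 minutes, and phospho-4E-BP1 was detected by TR-FRET. Ki apparent was fitted with the Morrison ATP-competitive tight-binding equation.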

[2] = system: PC3 cells; assay: In vitro cell proliferation assay; assay type: cell-based, human; conditions: Homo sapiens, PC-3, with PC3 cells; values tied to compounds by order of Table 1
Summary of the method: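 PC3 (or MDAMB361.1) cells, ~10^3/well, settled overnight, then exposed to compound for 3 days; viability read by CellTiter-Glo luminescence (RLU). Alternatively, 4-day compound exposure followed by Alamar Blue for 6 h, fluorescence 544/590 nm; EC50 from sigmoidal dose-response fit.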

mTOR enzyme (mTOR(1360-2549)+GBL), sequence (P42345 1360-2549, species assumed): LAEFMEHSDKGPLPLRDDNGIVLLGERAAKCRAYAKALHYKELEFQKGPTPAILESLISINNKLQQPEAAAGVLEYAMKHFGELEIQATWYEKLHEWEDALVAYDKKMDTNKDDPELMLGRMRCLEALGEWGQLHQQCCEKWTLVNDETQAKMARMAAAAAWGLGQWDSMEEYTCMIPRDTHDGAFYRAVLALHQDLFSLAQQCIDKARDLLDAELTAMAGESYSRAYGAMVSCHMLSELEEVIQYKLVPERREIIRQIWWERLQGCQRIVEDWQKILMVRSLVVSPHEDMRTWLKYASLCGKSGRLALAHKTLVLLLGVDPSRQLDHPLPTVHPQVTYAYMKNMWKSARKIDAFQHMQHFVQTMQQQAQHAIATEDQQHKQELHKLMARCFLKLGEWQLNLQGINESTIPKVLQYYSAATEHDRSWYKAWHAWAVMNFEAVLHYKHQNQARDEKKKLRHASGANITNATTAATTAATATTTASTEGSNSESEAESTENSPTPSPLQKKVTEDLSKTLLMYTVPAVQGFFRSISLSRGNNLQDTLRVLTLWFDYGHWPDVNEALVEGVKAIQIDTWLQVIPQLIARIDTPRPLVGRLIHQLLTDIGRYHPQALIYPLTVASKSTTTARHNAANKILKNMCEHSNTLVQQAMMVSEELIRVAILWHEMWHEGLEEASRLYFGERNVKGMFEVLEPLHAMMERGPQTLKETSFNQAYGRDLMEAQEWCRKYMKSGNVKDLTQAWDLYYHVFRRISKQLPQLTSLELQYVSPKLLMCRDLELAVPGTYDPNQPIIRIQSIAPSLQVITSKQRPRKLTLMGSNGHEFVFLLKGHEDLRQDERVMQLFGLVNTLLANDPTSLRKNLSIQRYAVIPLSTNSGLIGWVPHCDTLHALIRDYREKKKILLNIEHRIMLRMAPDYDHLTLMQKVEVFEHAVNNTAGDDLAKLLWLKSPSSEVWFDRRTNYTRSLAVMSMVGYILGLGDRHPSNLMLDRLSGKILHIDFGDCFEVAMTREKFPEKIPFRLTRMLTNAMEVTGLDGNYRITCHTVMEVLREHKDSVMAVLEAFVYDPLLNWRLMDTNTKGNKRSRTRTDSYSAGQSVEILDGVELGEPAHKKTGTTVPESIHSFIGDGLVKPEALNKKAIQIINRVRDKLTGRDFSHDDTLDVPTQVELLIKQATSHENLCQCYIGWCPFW
mTOR enzyme (mTOR(1360-2549)+GBL), sequence (Q9BVC4 whole entry partner, species assumed): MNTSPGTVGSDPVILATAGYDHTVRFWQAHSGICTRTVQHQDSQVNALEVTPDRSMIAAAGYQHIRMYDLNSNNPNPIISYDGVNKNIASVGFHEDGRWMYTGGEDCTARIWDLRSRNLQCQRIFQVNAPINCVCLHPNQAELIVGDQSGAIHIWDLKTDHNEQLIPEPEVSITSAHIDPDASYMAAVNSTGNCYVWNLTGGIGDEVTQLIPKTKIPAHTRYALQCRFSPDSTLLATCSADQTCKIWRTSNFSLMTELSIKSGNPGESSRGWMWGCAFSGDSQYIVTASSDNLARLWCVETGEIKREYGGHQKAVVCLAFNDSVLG

CC1(C)OCc2c(N3C[C@H]4C[C@@H]3CO4)nc(-c3cnc(N)nc3)nc21 [Example 105, 5-(4-((1R,4R)-2-oxa-5-azabicyclo[2.2.1]heptan-5-yl)-7,7-dimethyl-5,7-dihydrofuro[3,4-d]pyrimidin-2-yl)pyrimidin-2-amine]
Ki [1]: 88 nM | EC50 [2]: 17 nM

CC1(C)OCc2c(N3C[C@H]4CC[C@@H](C3)O4)nc(-c3cnc(N)nc3)nc21 [Example 107, 5-(4-((1R,5S)-8-oxa-3-azabicyclo[3.2.1]octan-3-yl)-7,7-dimethyl-5,7-dihydrofuro[3,4-d]pyrimidin-2-yl)pyrimidin-2-amine]
Ki [1]: 10 nM | EC50 [2]: 231 nM

COCC[C@]1(C)OCc2c(N3CCOC[C@@H]3C)nc(-c3ccc4nc(N)oc4c3)nc21 [Example 112 hg^1]
Ki [1]: 255 nM and 410 nM | EC50 [2]: 671 nM

CC1(C)OCc2c(N3CCOCC3)nc(-c3ccc4oc(N)nc4c3)nc21 [Example 114, 5-(7,7-dimethyl-4-morpholino-5,7-dihydrofuro[3,4-d]pyrimidin-2-yl)benzo[d]oxazol-2-amine]
Ki [1]: 124 nM | EC50 [2]: 2500 nM

CC1(C)OCc2c(N3CCOCC3)nc(-c3ccc4nc(N)oc4c3)nc21 [Example 115, 6-(7,7-dimethyl-4-morpholino-5,7-dihydrofuro[3,4-d]pyrimidin-2-yl)benzo[d]oxazol-2-amine]
Ki [1]: 269 nM | EC50 [2]: 146 nM

CC1(C)OCc2c(N3CCOCC3)nc(-c3ccc4c(N)noc4c3)nc21 [Example 116, 6-(7,7-dimethyl-4-morpholino-5,7-dihydrofuro[3,4-d]pyrimidin-2-yl)benzo[d]isoxazol-3-amine]
Ki [1]: 17 nM | EC50 [2]: 2100 nM

CC1(C)OCc2c(N3CCOCC3)nc(-c3ccc4onc(N)c4c3)nc21 [Example 117, 5-(7,7-dimethyl-4-morpholino-5,7-dihydrofuro[3,4-d]pyrimidin-2-yl)benzo[d]isoxazol-3-amine]
Ki [1]: 567 nM | EC50 [2]: 1200 nM

COCC[C@]1(C)OCc2c(N3CCOC[C@@H]3C)nc(-c3ccc4onc(N)c4c3)nc21 [Example 119 hq^1]
Ki [1]: 4300 nM and 1500 nM | EC50 [2]: 203 nM

C[C@H]1COCCN1c1nc(-c2ccc3c(N)noc3c2)nc2c1COC2(C)C [Example 120, (S)-6-(7,7-dimethyl-4-(3-methylmorpholino)-5,7-dihydrofuro[3,4-d]pyrimidin-2-yl)benzo[d]isoxazol-3-amine]
Ki [1]: 24 nM | EC50 [2]: 39 nM

C[C@H]1COCCN1c1nc(-c2ccc3onc(N)c3c2)nc2c1COC2(C)C [Example 121, (S)-5-(7,7-dimethyl-4-(3-methylmorpholino)-5,7-dihydrofuro[3,4-d]pyrimidin-2-yl)benzo[d]isoxazol-3-amine]
Ki [1]: 390 nM | EC50 [2]: 1300 nM

C[C@H]1COCCN1c1nc(-c2ccc3oc(N)nc3c2)nc2c1COC2(C)C [Example 123, (S)-5-(7,7-dimethyl-4-(3-methylmorpholino)-5,7-dihydrofuro[3,4-d]pyrimidin-2-yl)benzo[d]oxazol-2-amine]
Ki [1]: 43 nM | EC50 [2]: 302 nM

COCC[C@]1(C)OCc2c(N3CCOC[C@@H]3C)nc(-c3ccc4nc(N)[nH]c4c3)nc21 [Example 124 hv^1]
Ki [1]: 24 nM and 81 nM | EC50 [2]: 577 nM

CNc1nc2cc(-c3nc(N4CCOC[C@@H]4C)c4c(n3)C(C)(C)OC4)ccc2[nH]1 [Example 125, (S)-5-(7,7-dimethyl-4-(3-methylmorpholino)-5,7-dihydrofuro[3,4-d]pyrimidin-2-yl)-N-methyl-1H-benzo[d]imidazol-2-amine]
Ki [1]: 10 nM | EC50 [2]: 562 nM

CC[C@H]1COCCN1c1nc(-c2cnc(N)nc2)nc2c1CCCO2 [Example 128, (S)-5-(4-(3-ethylmorpholino)-6,7-dihydro-5H-pyrano[2,3-d]pyrimidin-2-yl)pyrimidin-2-amine]
Ki [1]: 103 nM | EC50 [2]: 1200 nM

Nc1ccc(-c2nc3c(c(N4C[C@H]5CC[C@@H](C4)O5)n2)CCCO3)cn1 [Example 130, 5-(4-((1R,5S)-8-oxa-3-azabicyclo[3.2.1]octan-3-yl)-6,7-dihydro-5H-pyrano[2,3-d]pyrimidin-2-yl)pyridin-2-amine]
Ki [1]: 30 nM | EC50 [2]: 743 nM
